Laboratory results from patent publication US7208491B2, “N-monoacylated o-phenylenediamines” (Hoffmann-La Roche Inc., priority 2003, dated 2007).

Columns and labels:
[1] = system: histone deacetylase (HDAC); assay: cellular acetylation assay (acetylation of histones in PC3 cells, ELISA); type: cell-based; settings: PC3 human prostate carcinoma cells; compound 1 μM; 24 h incubation; ELISA with antibodies against acetylated histone H3 or H4
Description: Therein acetylation of histones is monitored in PC3 cells. High acetylation correlates with inhibition of histone deacetylase by compounds. Cell viability is monitored in parallel to estimate the cytotoxicity of compounds.
PC3 cells, a human prostate carcinoma cell line, are seeded as 1800 cells per well of a 384-well microtiterplate in RPMI 1640 (including 5% FCS, 2 mM glutamine and pen/strep).
After 48 h at 37° C. pre-diluted compounds are added to a final concentration of 1 uM. Compounds are pre-diluted in dimethyl sulfoxide (DMSO) resulting in a final concentration of DMSO of 0.5% per well.
After 24 h incubation cell viability is determined by adding cell proliferation reagent WST-1 (Roche Molecular Biochemicals). Another 60 min later the optical density (OD) is measured (450 nm versus 690 nm).
After measurement the cell layer is prepared for the ELISA reaction. Medium is aspirated and cells are fixed in ethanol at −20° C. for 60 min. After washing with PBS/Tween the blocking solution (PBS/5% FCS/Tween) is added and the cell layer is washed again. Antibodies against acetylated histone H3 or H4 (rabbit polyklonal IgG, Upstate Biotechnologie) are added at a dilution of 1:200 for 60 min at 37° C. As a second antibody goat anti rabbit IgG (H+L) humanIgG adsorbed-HRP conjugate (Dako) is used (1:2000 diluted). Cells are washed 3 times and the peroxidase substrate ABTS is allowed to react for 30–60 min at 37° C. The OD is measured at 405 nm.
The percentage of acetylation is calculated after substraction of blank O.D.s: […]

melting point [°C]	SMILES	cell acetylation (PC3, 1 μM) [% of control] [1]
–	CC(=O)Nc1ccc(C(=O)Nc2ccccc2N)cc1 [4-acetylamino-N-(2-amino-phenyl)-benzamide, reference compound]	152 % of control
–	CN(C)CCCOc1ccc2sc(C(=O)Nc3ccccc3N)cc2c1 [Example 2, 5-(3-Dimethylamino-propoxy)-benzo[b]thiophene-2-carboxylic acid (2-amino-phenyl)-amide]	209 % of control
–	CC(C)N(CCOc1ccc2sc(C(=O)Nc3ccccc3N)cc2c1)C(C)C [Example 3, 5-(2-Diisopropylamino-ethoxy)-benzo[b]thiophene-2-carboxylic acid (2-amino-phenyl)-amide]	172 % of control
215 to 216	Nc1ccccc1NC(=O)c1cc2cc(OCCO)ccc2s1 [Example 16, 5-(2-Hydroxy-ethoxy)-benzo[b]thiophene-2-carboxylic acid (2-amino-phenyl)-amide]	156 % of control
–	Nc1ccccc1NC(=O)c1cc2cc(CCO)ccc2o1 [Example 24, 5-(2-Hydroxy-ethyl)-benzofuran-2-carboxylic acid (2-amino-phenyl)-amide]	157 % of control
